Molecules are shown by their SMILES.

The target of one test is T1, RON tyrosine kinase (Homo sapiens, UniProt Q04912).
T1 construct: purchased Carna Bioscience
As to the kind of experiment: Enzyme inhibitory activity against RON tyrosine kinase (TR-FRET). To be noted: RON (Carna Bioscience). The test is classed as biochemical. Here is the method: Experimental Example 1: Measurement of Enzyme Inhibitory Activity Against RON Tyrosine Kinase
To measure enzyme inhibitory activity of the example compounds against RON, IC50 values of the compounds were measured using fluorescence resonance energy transfer (FRET).
Specifically, first, RON (Carna Bioscience) was diluted in a kinase assay buffer (50 mM HEPES pH 7.5, 1 mM EGTA, 10 mM MgCl2, 2 mM DTT, and 0.01% Tween-20) to be at a concentration (0.4 nM) that is twice the final reaction concentration. The dilute was added to a 384-well-plate at 5 μl per well. Each of the example compounds was prepared at a concentration of 1 mM in 100% DMSO and diluted 8 times in a stepwise manner through 10-fold dilution. Each compound was diluted in a kinase assay buffer to be at a concentration that is 4 times the final reaction concentration. The dilute was added to a 384-well-plate at 2.5 μl per well, and incubation was performed at room temperature for 15 minutes.
Thereafter, an ATP solution (Sigma Aldrich) prepared at a concentration of 0.25 M was diluted in a kinase assay buffer to be at a concentration (60 μM) that is 4 times the final reaction concentration. Dilution of a tyrosine peptide substrate (Perkin-Elmer) was performed therein to be at a concentration (400 nM) that is 4 times the final reaction concentration. The dilute was added to a 384-well-plate at 2.5 µl per well. Reaction was allowed to proceed for 60 minutes by incubating the 384-well-plate at room temperature. Thereafter, EDTA (Sigma Aldrich) was diluted in a TR-FRET detection buffer (Perkin-Elmer) to be at a concentration (20 mM) that is twice the final reaction concentration. Dilution of a Europium-containing phosphotyrosine antibody (Perkin-Elmer) was performed in the diluted EDTA solution to be at a concentration (4 nM) that is twice the final reaction concentration, so that a stop solution for RON reaction was prepared.
The stop solution was added to the 384-well-plate at 10 μl per well to quench the reaction, and incubation was performed at room temperature for 60 minutes. Then, the 384-well-plate was read on a Victor X5 (Perkin-Elmer) plate reader. Here, the excitation wavelength was 340 nm, and the emission wavelengths were 620 nm and 665 nm. An IC50 value of the compound was derived using GraphPad Prism 5 program, in which the IC50 was derived by expressing emission energy at the wavelength of 665 nm as a function of the compound concentration.

The test system of test [1] is cancer cell line KM12C, in which RON is activated. The experiment in a line: Cell growth inhibitory ability in RON-activated cancer cell line (MTS). The test is classed as cell-based. To be noted: Homo sapiens, 48 hours, absorbance 490 nm. The procedure: Experimental Example 2: Identification of Cell Growth Inhibitory Ability of Example Compounds in RON-Activated Cancer Cell Line
The cancer cell line KM12C (80015, KCLB, MEM+1K° FBS), in which RON is activated, was treated with each of the example compounds at a concentration of 10 μM, and then reaction was allowed to proceed for 48 hours. 24 hours after completion of the reaction, 20 μl of MTS solution (CellTiter 96 Aqueous One Solution Cell Proliferation Assay, product number: G3581, Promega) was added to each well, and then incubation was performed at a temperature of 37° C. in 50 CO2 incubator for 4 hours. Then, an IC50 value of the compound was derived by measuring its absorbance value at a wavelength of 490 nm using a Victor X5 plate reader. Here, as a positive control, N-(4-(2-amino-3-chloropyridin-4-yloxy)-3-fluorophenyl)-4-ethoxy-1-(4-fluorophenyl)-2-oxo-1,2-dihydropyridine-3-carboxamide, which is the compound of Example 1 in WO 2008/058229 A1, was used.

For test [2] the test system is unchanged. The experiment in a line: Cell-killing efficacy in RON-activated cancer cell line (trypan blue). The test is classed as cell-based. The conditions noted are these: Homo sapiens, 48 hours, trypan blue, n=2, read-out: Cell death (%) Cancer cell line KM12C. The procedure: Experimental Example 3: Measurement of Cell-Killing Efficacy of Example Compounds in RON-Activated Cancer Cell Line
The cancer cell line KM12C (80015, KCLB, MEM+10% FBS), in which RON is activated, was dispensed into each 60 mm^2 dish at 1×10^5 cells. After 24 hours, the dish was treated with each of the example compounds at a concentration of 1 μM or 5 μM while performing medium exchange, and then reaction was allowed to proceed for 48 hours. After 48 hours, centrifugation was performed for 4 minutes at 1,500 rpm to collect cells and cell fluid. Thereafter, living cells and dead cells were quantified (n=2) using a trypan blue solution (15250-061, Gibco), and statistical analysis was performed using Excel-T-test. Here, as a negative control, only a solvent (0.100 DMSO) was used; and as a positive control, N-(4-(2-amino-3-chloropyridin-4-yloxy)-3-fluorophenyl)-4-ethoxy-1-(4-fluorophenyl)-2-oxo-1,2-dihydropyridine-3-carboxamide, which is the compound of Example 1 in WO 2008/058229 A1, was used.

T1 sequence (Q04912 25-1400): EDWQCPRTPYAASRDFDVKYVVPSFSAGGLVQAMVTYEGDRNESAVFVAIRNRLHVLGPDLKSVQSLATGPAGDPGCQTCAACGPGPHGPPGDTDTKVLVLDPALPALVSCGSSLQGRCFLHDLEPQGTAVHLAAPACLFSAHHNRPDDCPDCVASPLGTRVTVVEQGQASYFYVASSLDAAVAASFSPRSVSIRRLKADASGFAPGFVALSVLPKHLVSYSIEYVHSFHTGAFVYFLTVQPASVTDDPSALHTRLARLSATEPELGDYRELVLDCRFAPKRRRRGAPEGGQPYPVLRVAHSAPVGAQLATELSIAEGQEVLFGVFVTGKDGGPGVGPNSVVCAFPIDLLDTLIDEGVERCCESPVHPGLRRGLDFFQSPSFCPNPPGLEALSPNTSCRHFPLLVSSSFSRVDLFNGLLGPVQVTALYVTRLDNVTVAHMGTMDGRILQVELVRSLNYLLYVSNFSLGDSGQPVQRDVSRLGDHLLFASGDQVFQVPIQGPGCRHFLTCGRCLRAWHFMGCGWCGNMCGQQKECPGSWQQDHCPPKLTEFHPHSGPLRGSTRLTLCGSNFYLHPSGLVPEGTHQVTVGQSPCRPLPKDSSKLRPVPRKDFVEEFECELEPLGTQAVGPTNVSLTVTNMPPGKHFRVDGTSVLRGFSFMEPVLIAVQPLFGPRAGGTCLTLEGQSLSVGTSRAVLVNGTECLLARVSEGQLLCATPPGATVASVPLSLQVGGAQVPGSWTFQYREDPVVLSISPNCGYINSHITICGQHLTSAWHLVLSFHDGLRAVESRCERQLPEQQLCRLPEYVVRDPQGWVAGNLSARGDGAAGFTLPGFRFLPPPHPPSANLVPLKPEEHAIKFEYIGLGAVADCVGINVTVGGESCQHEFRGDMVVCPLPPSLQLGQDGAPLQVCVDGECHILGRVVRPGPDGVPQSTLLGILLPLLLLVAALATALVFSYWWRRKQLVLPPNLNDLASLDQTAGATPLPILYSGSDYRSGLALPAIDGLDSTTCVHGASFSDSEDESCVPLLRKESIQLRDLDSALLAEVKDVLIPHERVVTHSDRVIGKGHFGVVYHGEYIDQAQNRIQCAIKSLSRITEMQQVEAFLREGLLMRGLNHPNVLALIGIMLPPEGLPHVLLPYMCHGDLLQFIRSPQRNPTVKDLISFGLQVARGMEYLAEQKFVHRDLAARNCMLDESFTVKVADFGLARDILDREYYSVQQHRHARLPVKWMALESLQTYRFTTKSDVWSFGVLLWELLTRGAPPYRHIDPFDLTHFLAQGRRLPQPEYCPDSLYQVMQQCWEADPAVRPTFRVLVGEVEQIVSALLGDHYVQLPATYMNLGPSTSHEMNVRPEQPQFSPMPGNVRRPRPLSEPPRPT

On to `O=C(Nc1ccc(Oc2ccnc3cc(-c4ccccn4)sc23)c(F)c1)c1c2c(cn(-c3ccccc3)c1=O)CCO2` [Example 4], for which the IC50 at RON tyrosine kinase came to 0.35 nM; in test [1], 8 nM.

As for `Cn1cnc(-c2cc3nccc(Oc4ccc(NC(=O)c5c6c(cn(-c7ccccc7)c5=O)CCO6)cc4F)c3s2)c1` [Example 9, N-(3-Fluoro-4-((2-(1-methyl-1H-imidazol-4-yl)thieno[3,2-b]pyridin-7-yl)oxy)phenyl)-6-oxo-5-phenyl-2,3,5,6-tetrahydrofuro[3,2-c]pyridine-7-carboxamide], the IC50 against RON tyrosine kinase was 0.5 nM; in test [1], 0.6 nM.

As for `O=C(Nc1ccc(Oc2ccnc3cc(-c4ccc(CN5CCC(F)(F)CC5)cn4)sc23)c(F)c1)c1c2c(cn(-c3ccc(F)cc3)c1=O)CCO2` [Example 35, N-(4-((2-(5-((4,4-Difluoropiperidin-1-yl)methyl)pyridin-2-yl)thieno[3,2-b]pyridine-7-yl)oxy)-3-fluorophenyl)-5-(4-fluorophenyl)-6-oxo-2,3,5,6-tetrahydrofuro[3,2-c]pyridine-7-carboxamide], in test [2], the cytotoxicity at 1 µM was 19.6% and the cytotoxicity at 5 µM came to 28.1%. The molecule also showed an IC50 in test [1] of 4 nM.

Regarding `CC1CCN(Cc2ccc(-c3cc4nccc(Oc5ccc(NC(=O)c6c7c(cn(-c8ccc(F)cc8)c6=O)CCO7)cc5F)c4s3)nc2)CC1` [Example 36, N-(3-Fluoro-4-((2-(5-((4-methylpiperidin-1-yl)methyl)pyridin-2-yl)thieno[3,2-b]pyridin-7-yl)oxy)phenyl)-5-(4-fluorophenyl)-6-oxo-2,3,5,6-tetrahydrofuro[3,2-c]pyridine-7-carboxamide], in test [2], the cytotoxicity at 1 µM was 17.1% and the cytotoxicity at 5 µM is 30%. The IC50 in test [1] was determined as 5 nM.

As for `CCNC(=O)c1cc2c(Oc3ccc(NC(=O)c4c5c(cn(-c6ccc(F)cc6)c4=O)CCO5)cc3F)ccnc2cc1OC` [Example 51, N-(4-((6-(Ethylcarbamoyl)-7-methoxyquinolin-4-yl)oxy)-3-fluorophenyl)-5-(4-fluorophenyl)-6-oxo-2,3,5,6-tetrahydrofuro[3,2-c]pyridine-7-carboxamide], the IC50 at RON tyrosine kinase is 0.55 nM; in test [1], 2 nM.

Regarding `COc1cc2nccc(Oc3ccc(NC(=O)c4c5c(cn(-c6ccc(F)cc6)c4=O)CCO5)cc3F)c2cc1NC(=O)CN1CCOCC1` [Example 53, N-(3-Fluoro-4-((7-methoxy-6-(2-morpholinoacetamido)quinolin-4-yl)oxy)phenyl)-5-(4-fluorophenyl)-6-oxo-2,3,5,6-tetrahydrofuro[3,2-c]pyridine-7-carboxamide], the IC50 at RON tyrosine kinase amounted to 1.03 nM; in test [1], 3 nM.

For the molecule `O=C(Nc1ccc(Oc2ccnc(NCCCN3CCOCC3)c2Cl)c(F)c1)c1c2c(cn(-c3ccc(F)cc3)c1=O)CCO2` [Example 62, N-(4-((3-Chloro-2-((3-morpholinopropyl)amino)pyridin-4-yl)oxy)-3-fluorophenyl)-5-(4-fluorophenyl)-6-oxo-2,3,5,6-tetrahydrofuro[3,2-c]pyridine-7-carboxamide], the IC50 against RON tyrosine kinase is 12.3 nM; in test [1], 1670 nM.

On to `CN1CCC(Nc2cc(Oc3ccc(NC(=O)c4c5c(cn(-c6ccc(F)cc6)c4=O)CCO5)cc3F)ccn2)CC1` [Example 63, N-(3-Fluoro-4-((2-((1-methylpiperidin-4-yl)amino)pyridin-4-yl)oxy)phenyl)-5-(4-fluorophenyl)-6-oxo-2,3,5,6-tetrahydrofuro[3,2-c]pyridine-7-carboxamide], for which the IC50 was 20.6 nM against RON tyrosine kinase and 2280 nM in test [1].

Regarding `O=C(Nc1ccc(Oc2ncnc3[nH]ccc23)c(F)c1)c1c2c(cn(-c3ccc(F)cc3)c1=O)CCO2` [Example 71, N-(4-((7H-pyrrolo[2,3-d]pyrimidin-4-yl)oxy)-3-fluorophenyl)-5-(4-fluorophenyl)-6-oxo-2,3,5,6-tetrahydrofuro[3,2-c]pyridine-7-carboxamide], the 50% inhibitory concentration (IC50) was determined as 8.24 nM on RON tyrosine kinase and 11 nM in test [1].

`COc1cc2c(Oc3ccc(NC(=O)c4c5c(cn(-c6ccc(F)cc6)c4=O)CCO5)cc3F)ccnc2cc1OCCCN1CC(C#N)C1` [Example 88, N-(4-((7-(3-(3-Cyanoazetidin-1-yl)propoxy)-6-methoxyquinolin-4-yl)oxy)-3-fluorophenyl)-5-(4-fluorophenyl)-6-oxo-2,3,5,6-tetrahydrofuro[3,2-c]pyridine-7-carboxamide]: in test [2], the cytotoxicity at 1 µM was determined as 18.8% and the cytotoxicity at 5 µM stood at 24.7%. The molecule further gave an IC50 in test [1] of 3 nM.

Turning to `COc1cc2c(Oc3ccc(NC(=O)c4c5c(cn(-c6ccc(F)cc6)c4=O)CCO5)cc3F)ccnc2cc1OCCCN1CCC(C)(O)C1` (centres unmarked) [Example 91, N-(3-Fluoro-4-((7-(3-(3-hydroxy-3-methylpyrrolidin-1-yl)propoxy)-6-methoxyquinoline-4-yl)oxy)phenyl)-5-(4-fluorophenyl)-6-oxo-2,3,5,6-tetrahydrofuro[3,2-c]pyridine-7-carboxamide], in test [2], the cytotoxicity at 1 µM stood at 12.7% and the cytotoxicity at 5 µM was found to be 14.3%. Further, the IC50 in test [1] was found to be 50 nM.

On to `COc1cc2c(Oc3ccc(NC(=O)c4c5c(cn(-c6ccc(F)cc6)c4=O)CCO5)cc3F)ccnc2cc1OCCCN1CCC(F)(F)C1` [Example 95, N-(4-((7-(3-(3,3-Difluoropyrrolidin-1-yl)propoxy)-6-methoxyquinolin-4-yl)oxy)-3-fluorophenyl)-5-(4-fluorophenyl)-6-oxo-2,3,5,6-tetrahydrofuro[3,2-c]pyridine-7-carboxamide], for which, in test [2], the cytotoxicity at 1 µM came out at 19.6% and the cytotoxicity at 5 µM is 25.6%. Also, in test [1], the IC50 was 5 nM.

Take `COc1cc2c(Oc3ccc(NC(=O)c4c5c(cn(-c6ccc(F)cc6)c4=O)CCO5)cc3F)ccnc2cc1OCCCN1CCS(=O)(=O)CC1` [Example 102, N-(4-((7-(3-(1,1-Dioxidothiomorpholino)propoxy)-6-methoxyquinolin-4-yl)oxy)-3-fluorophenyl)-5-(4-fluorophenyl)-6-oxo-2,3,5,6-tetrahydrofuro[3,2-c]pyridine-7-carboxamide]: in test [2], the cytotoxicity at 1 µM was determined as 23.4% and the cytotoxicity at 5 µM is 29.7%. Further, the IC50 in test [1] is 1 nM.

As to `COc1cc2c(Oc3ccc(NC(=O)c4c5c(cn(-c6ccc(F)cc6)c4=O)CCO5)cc3F)ccnc2cc1OCCN1CCC(C)(O)CC1` [Example 137, N-(3-Fluoro-4-((7-(2-(4-hydroxy-4-methylpiperidin-1-yl)ethoxy)-6-methoxyquinoline-4-yl)oxy)phenyl)-5-(4-fluorophenyl)-6-oxo-2,3,5,6-tetrahydrofuro[3,2-c]pyridine-7-carboxamide], in test [2], the cytotoxicity at 1 µM is 18.2% and the cytotoxicity at 5 µM was 22.4%. This molecule also had an IC50 in test [1] of 2 nM.

For the origin of these results see patent publication US20220235064A1 (WELLMARKER BIO CO., LTD., priority 2019, published 2022).
